# Reference: US20150197492A1, “NOVEL INDENO[1,2-c]QUINOLIN-11-ONE DERIVATIVES, PREPARATION METHOD AND APPLICATION THEREOF” (National Defense Medical Center, priority 2014, published 2015)
# What was measured:
# Format in all cases: cell-based
# human PC-3 cells = experiment: Sulforhodamine B (SRB) assay, cytotoxicity against PC-3 cells; conditions: SRB assay, PC-3 cells
# Description: Add 5% Fetal Bovine Serum (FBS) to 96-well plate and fix the cells with 10% TCA after 24 hours of incubation and add the compound (T0). Add DMSO and culture for another 48 hours and the cells are fixed in 0.4% (W/V), 10% TCA and SRB, and […]. Excess SRB is washed off by 1% acetic acid and cells stained with SRB are dissolved in 10 mmol/L Trizma base. The absorbance is measured at 515 nm. The treatment time is 0 (T0), control growth (C) and the increase of the compound (Tx) in the cells are shown below and are used to calculate the increase of the concentration of the compound in percentage. Growth inhibition (GI %) is calculated using the following formula 100−[(TX−T0)/(C−T0)]×100. The 50% growth inhibition concentration (IC50) is used to confirm the concentration of compound and thus results in 50% reduction of the treated cells which control the amount of total protein.
# This part of experimental results are SRB assays measuring cytotoxicity of the 26 synthesized compounds against human PC-3 cells and are summarized in Table 1 and 2.
# [1] = test system: 55 to 60 cancer cell lines; conditions: 10 μM, 48 hours; for Mean (mean growth percentage of the tested cancer cell lines): all tested cell lines
# CCRF-CEM = experiment: cells; conditions: CCRF-CEM (Leukemia), 10 μM, 48 hours
# HOP-62 = experiment: cells; conditions: HOP-62 (Non-Small Cell Lung Cancer), 10 μM, 48 hours
# NCI-H226 = experiment: cells; conditions: NCI-H226 (Non-Small Cell Lung Cancer), 10 μM, 48 hours
# NCI-H522 = experiment: cells; conditions: NCI-H522 (Non-Small Cell Lung Cancer), 10 μM, 48 hours
# HCT-15 = experiment: cells; conditions: HCT-15 (Colon Cancer), 10 μM, 48 hours
# KM12 = experiment: cells; conditions: KM12 (Colon Cancer), 10 μM, 48 hours
# SF-295 = experiment: cells; conditions: SF-295 (CNS Cancer), 10 μM, 48 hours
# SF-539 = experiment: cells; conditions: SF-539 (CNS Cancer), 10 μM, 48 hours
# SNB-19 = experiment: cells; conditions: SNB-19 (CNS Cancer), 10 μM, 48 hours
# MALME-3M = experiment: cells; conditions: MALME-3M (Melanoma), 10 μM, 48 hours
# M14 = experiment: cells; conditions: M14 (Melanoma), 10 μM, 48 hours
# SK-MEL-5 = experiment: cells; conditions: SK-MEL-5 (Melanoma), 10 μM, 48 hours
# UACC-257 = experiment: cells; conditions: UACC-257 (Melanoma), 10 μM, 48 hours
# OVCAR-5 = experiment: cells; conditions: OVCAR-5 (Ovarian Cancer), 10 μM, 48 hours
# OVCAR-8 = experiment: cells; conditions: OVCAR-8 (Ovarian Cancer), 10 μM, 48 hours
# NCI/ADR-RES = experiment: cells; conditions: NCI/ADR-RES (Ovarian Cancer), 10 μM, 48 hours
# 786-0 = experiment: cells; conditions: 786-0 (Renal Cancer), 10 μM, 48 hours
# ACHN = experiment: cells; conditions: ACHN (Renal Cancer), 10 μM, 48 hours
# CAKI-1 = experiment: cells; conditions: CAKI-1 (Renal Cancer), 10 μM, 48 hours
# RXF 393 = experiment: cells; conditions: RXF 393 (Renal Cancer), 10 μM, 48 hours
# SN12C = experiment: cells; conditions: SN12C (Renal Cancer), 10 μM, 48 hours
# UO-31 = experiment: cells; conditions: UO-31 (Renal Cancer), 10 μM, 48 hours
# DU-145 = experiment: cells; conditions: DU-145 (Prostate Cancer), 10 μM, 48 hours
# MCF7 = experiment: cells; conditions: MCF7 (Breast Cancer), 10 μM, 48 hours
# T-47D = experiment: cells; conditions: T-47D (Breast Cancer), 10 μM, 48 hours
Structure (SMILES),Toxicity (%) (human PC-3 cells),GI % (10 μM) (human PC-3 cells) [%],Mean (mean growth percentage of the tested cancer cell lines) [1] [%],growth percentage (CCRF-CEM) [%],growth percentage (NCI-H226) [%],growth percentage (NCI-H522) [%],growth percentage (HCT-15) [%],growth percentage (KM12) [%],growth percentage (SF-295) [%],growth percentage (SF-539) [%],growth percentage (SNB-19) [%],growth percentage (MALME-3M) [%],growth percentage (M14) [%],growth percentage (SK-MEL-5) [%],growth percentage (UACC-257) [%],growth percentage (OVCAR-5) [%],growth percentage (OVCAR-8) [%],growth percentage (NCI/ADR-RES) [%],growth percentage (786-0) [%],growth percentage (ACHN) [%],further results
"CNc1nc2ccccc2c2c1-c1ccc(Cl)cc1C2=O [SJ-1, 9-Chloro-6-(methylamino)-11H-indeno[1,2-c]quinolin-11-one]",52.8,100,84.15,101.50,92.19,90.50,66.20,66.82,95.71,92.08,95.95,114.83,112.68,80.96,107.69,81.54,94.33,92.22,103.34,88.46,"inhibition effect in different cancer cell lines (summary of the NCI data, in words) [1]: more effective in breast cancer cell line; growth percentage (HOP-62): 87.10%; growth percentage (CAKI-1): 73.84%; growth percentage (RXF 393): 97.15%; growth percentage (SN12C): 94.82%; growth percentage (UO-31): 56.91%; growth percentage (DU-145): 106.88%; growth percentage (MCF7): 5.24%; growth percentage (T-47D): 23.53%"
"CC1CCN(c2nc3ccccc3c3c2-c2ccc(Cl)cc2C3=O)CC1 [SJ-6, 9-Chloro-6-(4-methylpiperidin-1-yl)-11H-indeno[1,2-c]quinolin-11-one]",0,89.81,96.2,104.33,94.59,98.45,97.78,94.80,96.18,90.22,103.87,98.31,96.60,98.52,106.47,104.92,96.38,90.28,102.73,94.75,growth percentage (HOP-62): 64.18%; growth percentage (CAKI-1): 83.89%; growth percentage (RXF 393): 97.51%; growth percentage (SN12C): 99.08%; growth percentage (UO-31): 76.25%; growth percentage (DU-145): 103.47%; growth percentage (MCF7): 64.65%; growth percentage (T-47D): 67.68%
"O=C1c2cc(Cl)ccc2-c2c(N3CCSCC3)nc3ccccc3c21 [SJ-9, 9-Chloro-6-thiomorpholino-11H-indeno[1,2-c]quinolin-11-one]",33.3,100,94.75,105.04,94.22,92.76,97.88,97.97,93.33,92.93,113.43,101.05,101.69,89.52,107.44,94.37,96.11,102.85,99.53,86.42,growth percentage (HOP-62): 78.17%; growth percentage (CAKI-1): 82.68%; growth percentage (RXF 393): 106.09%; growth percentage (SN12C): 93.10%; growth percentage (UO-31): 65.33%; growth percentage (DU-145): 106.04%; growth percentage (MCF7): 49.61%; growth percentage (T-47D): 83.86%
"O=C1c2cc(Cl)ccc2-c2c(N3CCN(c4ccccc4)CC3)nc3ccccc3c21 [SJ-16, 9-Chloro-6-(4-phenylpiperazin-1-yl)-11H-indeno[1,2-c]quinolin-11-one]",0,65.91,87.29,93.52,79.43,80.10,80.71,98.34,60.91,83.17,88.40,100.05,97.52,99.23,98.40,88.56,75.82,97.88,81.41,68.58,growth percentage (CAKI-1): 80.23%; growth percentage (RXF 393): 72.95%; growth percentage (SN12C): 87.90%; growth percentage (UO-31): 65.02%; growth percentage (DU-145): 102.96%; growth percentage (MCF7): 53.31%; growth percentage (T-47D): 75.93%
